Data set [1] relates to TTR. Description: TTR editing in mouse liver by NGS after i.v. LNP delivery of Cas9 mRNA and sgRNA. The note with it: CD-1 female mice; for % Editing (TTR, liver): Example 55: 0.1 mpk i.v. The data set is classed as in vivo. The procedure: Preparations of various LNP compositions were prepared with amine lipids. In assays for percent liver editing in mice, Cas9 mRNA and chemically modified sgRNA were formulated in LNPs, at either a 1:1 w/w ratio or a 1:2 w/w ratio. LNPs are formulated with a composition of a given ionizable lipid (e.g. an amine lipid), DSPC, cholesterol, and PEG-2k-DMG, with a 6.0 N:P ratio.
(§1) CD-1 female mice, ranging from 6-10 weeks of age were used in each study. Animals were weighed and grouped according to body weight for preparing dosing solutions based on group average weight. LNPs were dosed via the lateral tail vein in a volume of 0.2 mL per animal (approximately 10 mL per kilogram body weight). The animals were periodically observed post dose for adverse effects for at least 24 hours post dose. Animals were euthanized at 6 or 7 days by exsanguination via cardiac puncture under isoflurane anesthesia. Blood was collected into serum separator tubes or into tubes containing buffered sodium citrate for plasma as described herein. For studies involving in vivo editing, liver tissue was collected from each animal for DNA extraction and analysis.
Cohorts of mice were measured for liver editing by Next-Generation Sequencing (NGS).
In brief, to quantitatively determine the efficiency of editing at the target location in the genome, genomic DNA was isolated and deep sequencing was utilized to identify the presence of insertions and deletions introduced by gene editing.
PCR primers were designed around the target site (e.g., B2M), and the genomic area of interest was amplified. Additional PCR was performed according to the manufacturer's protocols (Illumina) to add the necessary chemistry for sequencing. The amplicons were sequenced on an Illumina MiSeq instrument. The reads were aligned to the […] after eliminating those having low quality scores. The resulting files containing the reads were mapped to the reference genome (BAM files), where reads that overlapped the target region of interest were selected and the number of wild type reads versus the number of reads which contain an insertion, substitution, or deletion was calculated.
The editing percentage (e.g., the “editing efficiency” or “percent editing”) is defined as the total number of sequence reads with insertions or deletions over the total number of sequence reads, including wild type.
CD-1 female mice were dosed i.v. at 0.1 mpk or 0.3 mpk. At 6 days post-dose, animals were sacrificed. For animals dosed with G282 targeting TTR, blood and the liver were collected and serum TTR and editing were measured. For animals dosed with G650 targeting B2M, liver was collected and editing was measured.

The test system of data set [2] is TTR. The experiment in a line: Transthyretin (TTR) ELISA analysis of mouse serum after LNP dosing. The data set is classed as in vivo. On the procedure:
as §1
CD-1 female mice were dosed i.v. at 0.1 mpk or 0.3 mpk. […] For animals dosed with G282 targeting TTR, blood and the liver were collected and serum TTR and editing were measured. For animals dosed with G650 targeting B2M, liver was collected and editing was measured.
Blood was collected and the serum was isolated as indicated. The total mouse TTR serum levels were determined using a Mouse Prealbumin (Transthyretin) ELISA Kit (Aviva Systems Biology, Cat. OKIA00111). Briefly, sera were serial diluted with kit sample diluent to a final dilution of 10,000-fold for 0.1 mpk dose and 2,500-fold for 0.3 mpk. This diluted sample was then added to the ELISA plates and the assay was then carried out according to directions.

The nature of data set [3]: pKa measurement of unformulated amine lipid (fluorescence, method of Jayaraman et al.). It counts as physicochemical. The note with it: 100 μM in 0.1 M phosphate buffer pH 4.5-9.0. The procedure:
The pKa of each amine lipid was determined according to the method in Jayaraman, et al. (Angewandte Chemie, 2012) with the following adaptations. […] Lipid was diluted to 100 μM in 0.1 M phosphate buffer (Boston Bioproducts) where the pH ranged from 4.5-9.0. Fluorescence intensity was measured using excitation and emission wavelengths of 321 nm and 448 nm.

Setting [4] is: Example 55: 0.1 mpk i.v., 7 days post-dose, G282 1:1.
Where [5] appears, read: Example 58: 0.1 mpk i.v., 6 days post-dose, G282 1:1.
Where [6] appears, read: Mus musculus, iv, 144 h, Example 58: 0.1 mpk i.v., 6 days post-dose, G282 1:1, read-out: Serum TTR % TSS.
Setting [7] is: Example 63: 0.03 mpk i.v., 7 days post-dose, G282 1:1.
The mark [8] stands for this setting: Example 63: 0.1 mpk i.v., 7 days post-dose, G282 1:1.
Where [9] appears, read: Example 64: Dose 0.03 mpk (table) i.v., 7 days post-dose, G282 1:1.
The mark [10] stands for this setting: Example 60: 0.1 mpk i.v., 6 days post-dose, G502 1:2.

Where two headings read alike, the source gives them in different places.

In general, pKa refers to the pH at which an ionisable group is half protonated. Read a low pKa as a stronger acid or weaker base.

Consider `CCCCCCCCCOC(=O)CCCCCCCN(CCO)CCCCCCCC(OCCCCCC)OCCCCCC` [Compound 8, nonyl 8-((8,8-bis(hexyloxy)octyl)(2-hydroxyethyl)amino)octanoate], for which, in the data set on TTR [1] (7 days post-dose, G282 1:1), the “% Editing (TTR, liver)” value stood at 43%. For the same compound, in the data set on TTR [2] (setting [4]), the “Serum TTR” value stood at 387 µg/mL and the “Serum TTR (% TSS)” value is 34 % TSS. Also, the pKa in data set [3] came to 6.37.

The compound `CCCCCCCCCOC(=O)CCCCCCCN(CCCCCCC(OCCCCCCCC)OCCCCCCCC)CCCOC(C)=O` [Compound 50, nonyl 8-((3-acetoxypropyl)(7,7-bis(octyloxy)heptyl)amino)octanoate] gave a pKa in data set [3] of 5.45.

Consider `CCCCCCCCCCCCOC(=O)CCCCN(CCO)CCCCCCCC(OCCCCCCCC)OCCCCCCCC` [Compound 14, dodecyl 5-((8,8-bis(octyloxy)octyl)(2-hydroxyethyl)amino)pentanoate], for which the “Editing Mean % Indel” value in the data set with TTR [1] (setting [5]) is 12.1%. Further, the “Serum TTR” value in the data set with TTR [2] (setting [5]) stood at 928 µg/mL. Besides, the response vs control in vivo at 0.1 mg/kg with TTR [2] (setting [6]) was 94%. Further, the pKa in data set [3] was found to be 6.46.

As to `CCCCCCCCOC(CCCCCCCN(CCO)CCCCCCCC(=O)OC(C)CCCCCCCC)OCCCCCCCC` (stereo not drawn) [Compound 21, decan-2-yl 8-((8,8-bis(octyloxy)octyl)(2-hydroxyethyl)amino)octanoate], the pKa in data set [3] was 5.99.

In the case of `CCCCCCCCCOC(=O)CCCCCCCN(CCCO)CCCCCCC(OCCCCCCCC)OCCCCCCCC` [Compound 37, nonyl 8-((7,7-bis(octyloxy)heptyl)(3-hydroxypropyl)amino)octanoate], in data set [3], the pKa came to 6.3.

As for `CCCCCCCCOC(CCCCCCCN(CCO)CCCCCCCCCCOC(=O)CCCCCC)OCCCCCCCC` [Compound 24, 10-((8,8-bis(octyloxy)octyl)(2-hydroxyethyl)amino)decyl heptanoate], in data set [3], the pKa was 5.95.

Take `CCCCCCCCCCOC(=O)CCCCCCN(CCO)CCCCCCCC(OCCCCCCCC)OCCCCCCCC` [Compound 12, decyl 7-((8,8-bis(octyloxy)octyl)(2-hydroxyethyl)amino)heptanoate]: the “Editing Mean % Indel” value in the data set with TTR [1] (setting [5]) is given as 33.0%. Besides, the “Serum TTR” value in the data set on TTR [2] (setting [5]) was 490 µg/mL. The response vs control in vivo at 0.1 mg/kg in the data set on TTR [2] (setting [6]) is 50%. In data set [3], this compound had a pKa of 6.38.

With `CCCCCCCCOC(CCCCCCN(CCO)CCCCCCCC(=O)OCCCCCCC)OCCCCCCCC` [Compound 31, heptyl 8-((7,7-bis(octyloxy)heptyl)(2-hydroxyethyl)amino)octanoate], the pKa in data set [3] was found to be 6.47.

As for `CCCCCCCCOC(CCCCCCCN(CCO)CCCCCCCC(=O)OC(CC)CCCC)OCCCCCCCC` (stereo not drawn) [Compound 30, heptan-3-yl 8-((8,8-bis(octyloxy)octyl)(2-hydroxyethyl)amino)octanoate], the “Editing Mean % Indel” value in the data set on TTR [1] (setting [7]) was 27.64%; in the data set on TTR [1] (setting [8]) it was 62.48%. Besides, the “Serum TTR” value came out at 514.23 µg/mL in the data set with TTR [2] (setting [7]) and 125.89 µg/mL with TTR [2] (setting [8]). Further, the response vs control in vivo at 0.03 mg/kg in the data set with TTR [2] (Mus musculus, iv, 168 h, Example 63: 0.03 mpk i.v., 7 days post-dose, G282 1:1, read-out: Serum TTR % TSS) is 63.7%. For the same compound, the response vs control in vivo at 0.1 mg/kg in the data set with TTR [2] (Mus musculus, iv, 168 h, Example 63: 0.1 mpk i.v., 7 days post-dose, G282 1:1, read-out: Serum TTR % TSS) turned out to be 15.6%. The compound also yielded a pKa in data set [3] of 6.48.

Compound `CCCCCCCCCOC(=O)CCCCCCCN(CCCN)CCCCCCC(OCCCCCCCC)OCCCCCCCC` [Compound 38, nonyl 8-((3-aminopropyl)(7,7-bis(octyloxy)heptyl)amino)octanoate] registered a pKa in data set [3] of 7.81.

Turning to `CCCCCCCCCOC(=O)CCCCCCCN(CCCCCCC(OCCCCCCCC)OCCCCCCCC)CCCNC(C)=O` [Compound 42, nonyl 8-((3-acetamidopropyl)(7,7-bis(octyloxy)heptyl)amino)octanoate], in the data set on TTR [1] (setting [9]), the “Editing Mean % Indel” value was 9.6%. For the same compound, the “Serum TTR” value in the data set on TTR [2] (setting [9]) is 571.6 µg/mL. Further, the inhibition in vivo at 0.03 mg/kg with TTR [2] (Mus musculus, iv, 168 h, Example 64: Dose 0.03 mpk (table) i.v., 7 days post-dose, G282 1:1, read-out: Serum TTR (% KD)) came to 0.2%. This compound gave a pKa in data set [3] of 7.19.

For `CCCCCCCCCOC(=O)CCCCCCCN(CCCCCCC(OCCCCCCCC)OCCCCCCCC)CCCNS(C)(=O)=O` [Compound 48, nonyl 8-((7,7-bis(octyloxy)heptyl)(3-(methylsulfonamido)propyl)amino)octanoate], the pKa in data set [3] amounted to 7.61.

Regarding `CCCCCCCCCOC(=O)CCCCCCCN(CCO)CCCCCCCC(OCCCCCCC)OCCCCCCC` [Compound 7, nonyl 8-((8,8-bis(heptyloxy)octyl)(2-hydroxyethyl)amino)octanoate], in the data set with TTR [1] (7 days post-dose, G282 1:1), the “% Editing (TTR, liver)” value turned out to be 50%. In addition, in the data set on TTR [2] (setting [4]), the “Serum TTR” value is 234 µg/mL and the “Serum TTR (% TSS)” value worked out at 21 % TSS. The same compound yielded a pKa in data set [3] of 6.16.

`CCCCCCCCOC(CCCCCCN(CCO)CCCCCCCC(=O)OC(C)CCCCCC)OCCCCCCCC` (stereo not drawn) [Compound 32, octan-2-yl 8-((7,7-bis(octyloxy)heptyl)(2-hydroxyethyl)amino)octanoate] displayed a pKa in data set [3] of 6.36.

Consider `CCCCCCCCOC(CCCCCCN(CCO)CCCCCCCC(=O)OC(CC)CCCCCC)OCCCCCCCC` (stereo not drawn) [Compound 33, nonan-3-yl 8-((7,7-bis(octyloxy)heptyl)(2-hydroxyethyl)amino)octanoate], for which the pKa in data set [3] is 6.33.

For `CCCCCCCCCOC(=O)CCCCCCCN(CCO)CCCCCCCC(OC(C)CCCCCC)OC(C)CCCCCC` (stereo not drawn) [Compound 25, nonyl 8-[8,8-bis(1-methylheptoxy)octyl-(2-hydroxyethyl)amino]octanoate], in the data set on TTR [1] (setting [10]), the “Editing Mean % Indel” value was determined as 15.3%. Further, the “Serum TTR” value with TTR [2] (setting [10]) is 985 µg/mL. In the data set on TTR [2] (Mus musculus, iv, 144 h, Example 60: 0.1 mpk i.v., 6 days post-dose, G502 1:2, read-out: Serum TTR % TSS), the response vs control in vivo at 0.1 mg/kg stood at 69%. Further, the pKa in data set [3] worked out at 6.1.

Regarding `CCCCCCCCCOC(=O)CCCCCCCN(CCN)CCCCCCC(OCCCCCCCC)OCCCCCCCC` [Compound 36, nonyl 8-((2-aminoethyl)(7,7-bis(octyloxy)heptyl)amino)octanoate], in data set [3], the pKa is 7.2.

`CCCCCCCCCOC(=O)CCCCCCCN(CCCCCCC(OCCCCCCCC)OCCCCCCCC)CCNS(C)(=O)=O` [Compound 47, nonyl 8-((7,7-bis(octyloxy)heptyl)(2-(methylsulfonamido)ethyl)amino)octanoate] registered a pKa in data set [3] of 6.93.

For `CCCCCCCCCOC(=O)CCCCCCCN(CCCCCCC(OCCCCCCCC)OCCCCCCCC)CCOC(C)=O` [Compound 49, nonyl 8-((2-acetoxyethyl)(7,7-bis(octyloxy)heptyl)amino)octanoate], the pKa in data set [3] is 5.32.

`CCCCCCCCOC(CCCCCCN(CCO)CCCCCCCC(=O)OCCCCC)OCCCCCCCC` [Compound 34, pentyl 8-((7,7-bis(octyloxy)heptyl)(2-hydroxyethyl)amino)octanoate]: the pKa in data set [3] was 6.47.

In turn, `CCCCCCCCOC(CCCCCCN(CCO)CCCCCCCC(=O)OC(CC)CCCC)OCCCCCCCC` (stereo not drawn) [Compound 35, heptan-3-yl 8-((7,7-bis(octyloxy)heptyl)(2-hydroxyethyl)amino)octanoate] gave a pKa in data set [3] of 6.37. This pKa and that of the compound before are within 0.2 log units of each other.

For the origin of these results see patent US20260225997A1, “IONIZABLE AMINE LIPIDS” (Intellia Therapeutics, Inc., priority 2018, published 2026).
